Assay results taken from patent US20240139210A1, “TREATMENT OF NF-KB-MEDIATED DISEASE” (ReveraGen BioPharma, Inc., priority 2020, published 2024).

Assays:
[1] = VBP15-002 multiple ascending dose trial, PK and safety; assay type: in vivo, human
Method: Vamorolone clinical studies have been conducted in adult male volunteers and boys with DMD, a disorder in which skeletal muscle is in a chronic inflammatory state. Two consecutive open-label dose-ranging studies in 48 DMD patients aged 4 to <7 years (corticosteroid-naïve) were conducted (Phase IIa, VBP15-002; Phase IIa, VBP15-003). Doses were tested over a 24-fold dose range (0.25, 0.75, 2.0, and 6.0 mg/kg/day), with 12 participants per group. The first multiple ascending dose (MAD) cohort trial-tested pharmacokinetics (PK) and safety for 2 weeks of drug dosing followed by a 2-week washout (VBP15-002). […] All DMD participants completed the MAD study and then continued on the same dose for a 24-week dose-finding (efficacy and safety) extension study (VBP15-003).
VBP15-002 (Phase IIa; two weeks on the drug, two weeks off drug) enrolled 48 corticosteroid-naïve participants with DMD, and all 48 participants completed the study and enrolled into VBP15-003 (Phase IIa extension; 24-week treatment). Forty-six of 48 participants completed the VBP15-003 study (2 participants withdrew from VBP15-003 for reasons unrelated to the study drug). In addition, all participants (46/46) opted to enroll in the 24-month long-term extension study, VBP15-LTE.

participants with DMD [2] = test: VBP15-LTE prespecified safety evaluation: height percentile for age and BMI; assay type: in vivo, human
Method: Standing height and weight were assessed at each study visit. Height z-score, body mass index (BMI; kg/m 2), and BMI z-score were calculated centrally. AE reporting was done per protocol in the vamorolone trials.
(§1) Participants in the corticosteroid-treated CINRG DNHS group were treated for at least 18 months, but the total duration, dose, and regimens varied.
Statistical analyses were done on paired longitudinal outcome data using an analysis of covariance (ANCOVA) approach with change from baseline (VBP15-002) to month 18 (midpoint of VBP15-LTE). Baseline response and age were included as covariates. For the vamorolone-treated participants, age was calculated as (date of informed consent minus birthdate)/365.25. For the DNHS participants, age was calculated as (date of baseline visit used minus birthdate)/365.25. The baseline visit for a DNHS participant was the first visit. […] Timed function tests were analyzed as velocity scores to limit the impact of participants who could not perform the test (velocity=0). Velocity measures are variance-stabilizing transformations, suppressing extreme raw outliers from raw values in seconds; these help with distributional assumptions of the statistical models/tests used. Raw data (seconds) are also reported. Velocity scores for TTSTAND (event/second), TTRW (meters/second), and TTCLIMB (event/second) were inputted as 0 at the first response missing due to inability to perform the test. All other data were observed values only, without imputation. No adjustments for multiplicity on inferential statistics were specified in the iSAP.

boys with DMD = test: CINRG 12-month prednisone clinical trial, external comparator; assay type: in vivo, human; settings: vamorolone 18-month treatment versus prednisone trial 12-month treatment
Method: As with the CINRG DNHS comparators, group-matching criteria were prespecified in the iSAP, and 2 independent statisticians carried out the participant matching. […] There was no corresponding 12-month assessment in vamorolone-treated participants. (Assessments of vamorolone-treated trial participants were 0, 3, 6, and 18 months).
as §1

participants with DMD [3] = test: Physician-reported adverse events in vamorolone trials (DSUR, DSMB report); assay type: in vivo, human
Method: Study visits took place quarterly, including assessment of clinical laboratory results, vital signs, and AEs. All AEs were coded using the Medical Dictionary for Regulatory Activities (MedDRA version 19.0) system for reporting (preferred term and system organ class). Clinical efficacy assessments were performed at baseline of the VBP15-002 study, at six months (end of VBP15-003 study), and the 12-month midpoint visit of the VBP15-LTE study.
A Data and Safety Monitoring Board report on the VBP15-LTE study covering all participants enrolled in the VBP15-LTE study (inclusive beyond the 12-month midpoint assessment) included three serious AEs (2 myoglobinuria events [in the same participant] and one pneumonia), all deemed unrelated to study drug. For all reported TEAEs, 402 were deemed unrelated to vamorolone, 37 were deemed remotely related, 29 were deemed possibly related, 11 were deemed probably related, and three were deemed definitely related. Of the 14 AEs probably and definitely related to vamorolone, 10 were weight gain, 2 were increased appetite, 1 was Cushingoid features, and 1 was irritability.
The incidences of physician-reported AEs typically for corticosteroid treatment were determined for participants that had been treated with vamorolone 6.0 mg/kg/day (for any duration), taken from the March 2019 Data Safety Update Report (DSUR) (pharmacovigilance report). Incidence rates of Cushingoid features, weight gain, hirsutism, and behavior change were studied (Table 8).

[4] = system: ambulant boys aged 4 to <7 years with DMD; test: VISION-DMD Phase 2b study VBP15-004, efficacy at 24 weeks; assay type: in vivo, human
Method: (§2) The second period of 24 weeks, where all participants receive vamorolone treatment on either of the two dose levels, will continue to capture additional longer-term safety and tolerability data.
The study met its primary endpoint of superiority in the change of time to stand from supine positioning to standing (TTSTAND) velocity with vamorolone 6 mg/kg/day versus placebo (p=0.002) with a treatment difference of 0.06 [95% CI: 0.02-0.10] rises/second from baseline. […] Any number p<0.05 is considered significant.

[5] = system: ambulant boys aged 4 to <7 years with DMD; test: VBP15-004 adverse events; set-up: species or system human; settings: in vivo
Source text: as §2
The study completion rate at 24 weeks was 94% (or 114 of 121 participants).
Pre-specified AESIs typically for corticosteroids were higher in prednisone-treated subjects than vamorolone-treated subjects after 24 weeks of treatment (Table 10).

[6] = system: ambulant boys aged 4 to <7 years with DMD; test: VBP15-004 growth (height Z scores); assay type: in vivo, human
Source text: as §2

[7] = 2.0 or 6.0 mg/kg/day for 18 months (groups C+D)
[8] = vamorolone 18 months versus corticosteroid-naïve DNHS
[9] = 6.0 mg/kg/day vamorolone for any duration, n = 38
[10] = VBP15-LTE, DSMB report, all participants

## C[C@@H]1C[C@H]2[C@@H]3CCC4=CC(=O)C=C[C@]4(C)C3=CC[C@]2(C)[C@@]1(O)C(=O)CO [Vamorolone, 17α,21-dihydroxy-16α-methylpregna-1,4,9(11)-triene-3,20-dione]
[1]; 0.25-6.0 mg/kg/day, 2 weeks dosing
  dose-limiting toxicities: no dose-limiting toxicities
[1]; day 1 vs day 14
  drug accumulation: no drug accumulation
[1]; male, human, in vivo, oral, DMD patients aged 4 to <7 years, 0.25-6.0 mg/kg/day, 2 weeks dosing
  half-life: ~2 h
Participants with DMD [2]; [7]
  Mean BMI z-score, 18-month value (SD): 1.46 (0.62)
  Mean BMI z-score, change from baseline (SD): 0.411 (0.615)
  Mean height percentile for age, 18-month value (SD): 35.24 percentile
Participants with DMD [2]; 2.0 or 6.0 mg/kg/day for 18 months (groups C+D), listed as vamorolone
  Mean BMI z-score, change from baseline (SD): 0.41
Participants with DMD [2]; DMD children, N 22, 18 months treatment
  LS Mean change in height percentiles for age: +6.9
Participants with DMD [2]; original dose group B (0.75 mg/kg/day, escalated)
  BMI change from baseline to 18 months of treatment: 0.5 kg/m 2
Participants with DMD [2]; original dose group C (2.0 mg/kg/day)
  BMI change from baseline to 18 months of treatment: 1.11 kg/m 2
Participants with DMD [2]; original dose group D (6.0 mg/kg/day)
  BMI change from baseline to 18 months of treatment: 2.55 kg/m 2
Participants with DMD [2]; [8]
  Mean BMI z-score, LS mean difference (SE), ANCOVA: 0.899 (0.204)
  Mean height percentile for age, LS mean difference (SE), ANCOVA: 6.72 (3.48) percentile
Boys with DMD
  Mean height percentile for age, LS mean difference (SE), ANCOVA: 10.37 percentile
Participants with DMD [3]; [9]
  Incidence of physician-reported Cushingoid: 2.6%
  Incidence of physician-reported behavior change: 0%^2
  Incidence of physician-reported hypertrichosis/hirsutism: 0%
  Incidence of physician-reported weight gain: 13.2%
Participants with DMD [3]; VBP15-LTE, DSMB report
  Cushingoid features among the 14 AEs probably and definitely related, number: 1
  increased appetite among the 14 AEs probably and definitely related, number: 2
  irritability among the 14 AEs probably and definitely related, number: 1
  weight gain among the 14 AEs probably and definitely related, number: 10
Participants with DMD [3]; [10]
  TEAEs deemed definitely related, number: three
  TEAEs deemed possibly related, number: 29
  TEAEs deemed probably related, number: 11
  TEAEs deemed remotely related, number: 37
  TEAEs deemed unrelated to vamorolone, number: 402
Participants with DMD [3]; VBP15-LTE, DSMB report, all deemed unrelated to study drug
  serious AEs, number: three
[4]; vamorolone 6 mg/kg/day
  TTSTAND after treatment (baseline 6.0 seconds): 4.6 s
  TTSTAND velocity, treatment difference versus placebo in change from baseline: 0.06 rises/second
[4]; vamorolone 6 mg/kg/day vs prednisone 0.75 mg/kg/day
  difference between vamorolone and prednisone across TTSTAND, 6MWT, TTRW endpoints: no statistically significant differences
[5]
  clinically relevant psychiatric events, subjects: no vamorolone-treated subjects
[5]; male, human, 24 weeks
  moderate/severe behavior problems, subjects: 1.7%
[6]; vamorolone 2.0 mg/kg/day
  change in height Z scores from baseline to Week 24: overall stable height change Z scores
[6]; vamorolone 6.0 mg/kg/day
  change in height Z scores from baseline to Week 24: increased growth rate
